Experimental data as given in patent publication EP0989131B1, “THIENOTRIAZOLODIAZEPINE COMPOUNDS AND MEDICINAL USES THEREOF” (priority 1996, dated 1998).
Like-named read-outs stand apart in the source and are kept apart here.

Experiments:
[1] = tested on: CD11b expression of human histiocytic leukemia cell line U937; assay: Effect on CD11b expression of human histiocytic leukemia cell line U937 (cell ELISA); type: cell-based; settings: U937 cells; for IC50: PDB 10 ng/ml, cultured 3 days, read-out: Inhibitory effect on CD11b expression (IC50)
Protocol: Effect on the expression of CD11b antigen, which constitutes the α chain of Mac-1, which is one of the adhesion molecules expressing on the surface of leukocytic cells, was investigated. U937 cells were suspended in RPMI1640 medium containing 20% fetal calf serum, plated with phorbol 12,13-dibutyrate (PDB, 10 ng/ml) and the test compound into 96-well filtration plates (30000 cells/well), and cultured for 3 days at 37°C in 5% CO2. After washing the cells once with RPMI1640 medium, rat anti-human CD11b monoclonal antibody (2 µg/ml) was added and the plates were stood for 1 hr under ice-cooling. The cells were washed twice and peroxidase-conjugated anti-rat immunoglobulin antibody (1 µg/ml) was added. The cells were stood for 1 hr under ice-cooling. The cells were washed 3 times and peroxidase substrate (o-phenylenediamine) for coloring was added. The plates were stood for 15 min at room temperature and absorbance at 490 nm was measured with a 96-well microplate reader, which was used as an indicator of CD 11b antigen expression.

[2] = tested on: VCAM-1 expression in human umbilical vein-derived endothelial cells (HUVEC); assay: Inhibitory effect on TNF alpha-induced VCAM-1 expression in HUVEC (cell ELISA); type: cell-based; settings: for IC50: tumour necrosis factor α 20 U/ml, 5 hr
Protocol: (§1) HUVEC was suspended in 199 medium containing 20% fetal calf serum, 20 µg/ml endothelial cell growth factor derived from bovine brain, and 100 µg/ml heparin, plated into 96-well microculture plates coated with collagen, and cultured at 37°C in 5% CO2. When cells grew to confluence, the cells received tumour necrosis factor α (20 U/ml for VCAM-1 expression induction, 100 U/ml for E-selectin expression induction) and the test compound, which was followed by further culture for 5 hr. The cells were washed once with 199 medium and mouse anti-human VCAM-1 monoclonal antibody (2 µg/ml) or rat anti-human E-selectin monocolnal antibody (2 µg/ml) was added. The cells were stood for 1 hr at room temperature. The cells were washed twice and peroxidase-conjugated anti-mouse immunoglobulin antibody or anti-rat immunoglobulin antibody was added. The cells were stood for 1 hr at room temperature. The cells were washed 3 times and 2,2'-azino-bis(3-ethylbenzothiazoline-6-sulfonic acid) as a peroxidase substrate was added. The plates were stood for 15 min at room temperature and absorbance at 405 n/490 nm was measured with a 96-well microplate reader, which was used as an indicator of VCAM-1 or E-selectin expression.

[3] = tested on: E-selectin expression in human umbilical vein-derived endothelial cells (HUVEC); assay: Inhibitory effect on TNF alpha-induced E-selectin expression in HUVEC (cell ELISA); type: cell-based; settings: for IC50: tumour necrosis factor α 100 U/ml, 5 hr
Protocol: as §1

[4] = tested on: trinitrobenzenesulfonic acid (TNBS)-induced colitis; assay: Effect on trinitrobenzenesulfonic acid (TNBS)-induced colitis in rat; type: in vivo, SD rats; settings: TNBS sensitized rats, 5 days
Protocol: Colitis was induced by intraintestinal injection of TNBS solution (60 mg/ml in 50% EtOH, 500 µl) to SD rats. Seven days later, rats were subjected to autopsy and large intestine (8 cm from anus) was cut out and weighed. Myeloperoxidase (MPO) activity in the intestinal tissue was measured and taken as an indicator of infiltrated leukocyte count. That is, the intestine was homogenized and a cycle of freeze-thawing of the tissue was repeated 3 times. The supernatant obtained by centrifugation was assayed for MPO activity using peroxidase substrate (o-phenylenediamine). MPO unit in the supernatant was calculated with the commercial MPO as a standard. The increase in intestinal weight and increase in MPO activity determined as above were taken as indicators of the degree of colitis. Test compound was suspended in 0.5% hydroxypropylmethylcellulose (Metolose)solution and administered p.o. ([…]) or intraintestinally (0.2 ml/rat) for 5 days beginning on the day of TNBS injection.

[5] = tested on: carrageenan-induced colitis; assay: Effect on carrageenan-induced colitis in rabbits; type: in vivo; settings: 10 mg/kg consecutively from day 0 for 8 weeks, autopsy day 56, control 10.9 ± 2.0, P<0.05 (Mann-Whitney's U-test)
Protocol: A mixed emulsion of 1% λ-degraded carrageenan and Freund's complete adjuvant was subcutaneously injected to rabbits for sensitization. Starting from the 7th day (day 0) from sensitization, λ-degraded carrageenan (250-1000 mg/day/rabbit) was forcibly administered orally for 8 weeks to induce colitis. The next day (day 56) of the termination of λ-degraded carrageenan intake, the rabbits were subjected to autopsy and disorder in large intestine was scored using abnormal observation of mucosal epithelium of the tissue sample, level of infiltration of inflammatory cells and the like as indices. The test compounds (10 mg/kg) were consecutively administered from day 0 for 8 weeks.

[6] = Toxicity test, repeated oral administration; type: in vivo; settings: female rats, repeated oral administration for 10 days, 300 mg/kg
Description: Compound 2 was repeatedly administered orally to female rats for 10 days.

**Q.** Which IC50 ([1]; Homo sapiens, U-937, 72 h) does the source give for `Cc1sc2c(c1C)C(c1ccc(Cl)cc1)=N[C@@H](CC(=O)Nc1ccc(O)cc1)c1nnc(C)n1-2.O.O` [Compound 2, (S)-2-[4-(4-chlorophenyl)-2,3,9-trimethyl-6H-thieno[3,2-f][1,2,4]triazolo[4,3-a][1,4]diazepin-6-yl]-N-(4-hydroxyphenyl)acetamide dihydrate] here?
**A.** < 30 nM

**Q.** What about the IC50 ([2]; Homo sapiens) of the same molecule?
**A.** 0.11 µM

**Q.** What about the IC50 ([3]; Homo sapiens) of the same molecule?
**A.** 0.073 µM

**Q.** And the “Intestinal weight (mg, mean ± S.D.)” value ([4]; Table 4A, intraintestinal, 0.01 mg/site, P<0.01 (Dunnett's test))?
**A.** 499.6 ± 71.7 mg

**Q.** What about the “Intestinal weight (mg, mean ± S.D.)” value ([4]; Table 4A, intraintestinal, 0.1 mg/site, P<0.01 (Dunnett's test)) of the same molecule?
**A.** 502.0 ± 51.5 mg

**Q.** What about the “Intestinal weight (mg, mean ± S.D.)” value ([4]; Table 4A, intraintestinal, 1 mg/site, P<0.05 (Dunnett's test)) of the same molecule?
**A.** 536.0 ± 62.2 mg

**Q.** And the “MPO activity (U/ml, mean ± S.D.)” value ([4]; Table 4B, intraintestinal, 0.01 mg/site, P<0.01 (Mann-Whitney's U-test))?
**A.** 0.354 ± 0.081 U/ml

**Q.** And the “MPO activity (U/ml, mean ± S.D.)” value ([4]; Table 4B, intraintestinal, 0.1 mg/site, P<0.01 (Mann-Whitney's U-test))?
**A.** 0.334 ± 0.069 U/ml

**Q.** And the “MPO activity (U/ml, mean ± S.D.)” value ([4]; Table 4B, intraintestinal, 1 mg/site, P<0.01 (Mann-Whitney's U-test))?
**A.** 0.345 ± 0.097 U/ml

**Q.** What about the “Intestinal weight (mg, mean ± S.D.)” value ([4]; Table 5A, oral, 0.03 mg/kg, significance none (Dunnett's test)) of the same molecule?
**A.** 699.3 ± 163.7 mg

**Q.** And the “Intestinal weight (mg, mean ± S.D.)” value ([4]; Table 5A, oral, 1 mg/kg, P<0.01 (Dunnett's test))?
**A.** 468.5 ± 47.6 mg

**Q.** What about the “Intestinal weight (mg, mean ± S.D.)” value ([4]; Table 5A, oral, 3 mg/kg, P<0.01 (Dunnett's test)) of the same molecule?
**A.** 458.0 ± 34.7 mg

**Q.** And the “MPO activity (U/ml, mean ± S.D.)” value ([4]; Table 5B, oral, 0.3 mg/kg, significance none (Mann-Whitney's U-test))?
**A.** 1.568 ± 0.538 U/ml

**Q.** What about the “MPO activity (U/ml, mean ± S.D.)” value ([4]; Table 5B, oral, 1 mg/kg, P<0.05 (Mann-Whitney's U-test)) of the same molecule?
**A.** 0.769 ± 0.222 U/ml

**Q.** What about the “MPO activity (U/ml, mean ± S.D.)” value ([4]; Table 5B, oral, 3 mg/kg, P<0.05 (Mann-Whitney's U-test)) of the same molecule?
**A.** 0.740 ± 0.142 U/ml

**Q.** And the “mean ± S.E. of score (disorder in large intestine)” value [5]?
**A.** 5.3 ± 0.6

**Q.** What about the death [6] of the same molecule?
**A.** No case of death was observed

**Q.** With `Cc1sc2c(c1C)C(c1ccc(Cl)cc1)=N[C@@H](CC(=O)Nc1ccc(O)cc1)c1nnc(C)n1-2` [Compound 1, (S)-2-[4-(4-chlorophenyl)-2,3,9-trimethyl-6H-thieno[3,2-f][1,2,4]triazolo[4,3-a][1,4]diazepin-6-yl]-N-(4-hydroxyphenyl)acetamide] as the molecule, how does the “Intestinal weight (mg, mean ± S.D.)” value ([4]; Table 3A, intraintestinal, 0.01 mg/site, P<0.01 (Dunnett's test)) read?
**A.** 501.5 ± 78.3 mg

**Q.** What about the “Intestinal weight (mg, mean ± S.D.)” value ([4]; Table 3A, intraintestinal, 0.1 mg/site, P<0.01 (Dunnett's test)) of the same molecule?
**A.** 472.0 ± 43.4 mg

**Q.** And the “Intestinal weight (mg, mean ± S.D.)” value ([4]; Table 3A, intraintestinal, 1 mg/site, P<0.01 (Dunnett's test))?
**A.** 460.8 ± 52.3 mg

**Q.** What about the “MPO activity (U/ml, mean ± S.D.)” value ([4]; Table 3B, intraintestinal, 0.01 mg/site, P<0.05 (Mann-Whitney's U-test)) of the same molecule?
**A.** 0.716±0.158 U/ml

**Q.** And the “MPO activity (U/ml, mean ± S.D.)” value ([4]; Table 3B, intraintestinal, 0.1 mg/site, P<0.05 (Mann-Whitney's U-test))?
**A.** 0.654±0.109 U/ml

**Q.** What about the “MPO activity (U/ml, mean ± S.D.)” value ([4]; Table 3B, intraintestinal, 1 mg/site, P<0.05 (Mann-Whitney's U-test)) of the same molecule?
**A.** 0.676±0.172 U/ml

**Q.** For “5-(2-chlorophenyl)-7-(morpholinocarbonylethyl)-10-methyl-3,4-dihydro-2H,7H-cyclopenta[4,5]thieno[3,2-f][1,2,4]triazolo[4,3-a][1,4]diazepine [Comparison Compound]”, which IC50 [1] is on record?
**A.** > 3000 nM

**Q.** What about the “activity relative to the activity of Compound 2 (CD11b expression)” value ([1]; ratio to Compound 2) of the same molecule?
**A.** not more than 1/100

**Q.** What about the “VCAM-1 expression inhibitory effect relative to that of Compound 2” value ([2]; ratio to Compound 2) of the same molecule?
**A.** not more than 1/90

**Q.** What about the IC50 [2] of the same molecule?
**A.** > 10 µM

**Q.** And the “E-selectin expression inhibitory effect relative to the activity of Compound 2” value ([3]; ratio to Compound 2)?
**A.** not more than 1/130

**Q.** And the IC50 [3]?
**A.** > 10 µM
